How the values were obtained:
Type in all cases: in vivo
[1] = system: sorghum; assay: Herbicidal activity test against upland field weeds (foliar treatment test); design: key to Foliar treatment herbicidal activity, Sorghum: 0 (no control); 100 (complete control); details: 50 g ai/ha, scale 0-100; for plant injury at 50 g/ha: Sorghum
Summary of the method: (§1)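 Weeds were raised from seed or rootstocks in horticultural soil in a greenhouse (30±5° C., 14/10 h light/dark), then foliage was hand-sprayed with compound at 50 or 75 g a.i./ha in 50% acetone with 0.1% Tween-20. Control was scored visually 0–100 against untreated plants after 14 days, or 21 if needed.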

[2] = system: barnyard grass; assay: as above; design: key to Foliar treatment herbicidal activity, barnyard grass: 0 (no control); 100 (complete control); details: 50 g ai/ha, scale 0-100; for pest or weed control at 50 g/ha: Echinochloa crus-galli
Summary of the method: as §1

[3] = system: crabgrass; assay: as above; design: key to Foliar treatment herbicidal activity, Crabgrass: 0 (no control); 100 (complete control); details: 50 g ai/ha, scale 0-100; for pest or weed control at 50 g/ha: Digitaria sanguinalis
Summary of the method: as §1

[4] = system: fall panicum; assay: as above; design: key to Foliar treatment herbicidal activity, Fall panicum: 0 (no control); 100 (complete control); details: 50 g ai/ha, scale 0-100; for pest or weed control at 50 g/ha: Panicum dichotomiflorum
Summary of the method: as §1

[5] = system: black nightshade; assay: as above; design: key to Foliar treatment herbicidal activity, black nightshade: 0 (no control); 100 (complete control); details: 50 g ai/ha, scale 0-100; for pest or weed control at 50 g/ha: Solanum nigrum
Summary of the method: as §1

[6] = system: indian jointvetch; assay: as above; design: key to Foliar treatment herbicidal activity, Indian jointvetch: 0 (no control); 100 (complete control); details: 50 g ai/ha, scale 0-100
Summary of the method: as §1

[7] = system: velvetleaf; assay: as above; design: key to Foliar treatment herbicidal activity, velvet leaf: 0 (no control); 100 (complete control); details: 50 g ai/ha; for pest or weed control at 50 g/ha: Abutilon theophrasti, scale 0-100, read-out: Foliar treatment herbicidal activity, velvet leaf; for Foliar treatment herbicidal activity, velvet leaf: scale 0-100
Summary of the method: as §1

[8] = system: cocklebur; assay: as above; design: key to Foliar treatment herbicidal activity, Cocklebur: 0 (no control); 100 (complete control); details: 50 g ai/ha, scale 0-100; for pest or weed control at 50 g/ha: Xanthium strumarium
Summary of the method: as §1

[9] = system: bindweed; assay: as above; design: key to Foliar treatment herbicidal activity, Bindweed: 0 (no control); 100 (complete control); details: 50 g ai/ha, scale 0-100
Summary of the method: as §1

[10] = system: sorghum; assay: Herbicidal activity test against upland field weeds (soil treatment test); design: key to Soil treatment herbicidal activity, Sorghum: 0 (no control); 100 (complete control); details: 50 g ai/ha, scale 0 (no control) to 100 (complete control)
Procedure: (§2) Experimental Example 2: Herbicidal Activity Test Against Upland Field Weeds (Soil Treatment Test) Soil treatment was performed as follows: After filling a square plastic pot having a surface area of 350 cm^2 with sandy loam mixed with 1 g per pot (350 cm^2) of horticultural mixed fertilizer (N:P:K=11:10:11), seeds (10˜15 grains) or rootstocks (2 pieces) of 5 kinds of grassy weeds of sorghum, barnyard grass, quack grass, crabgrass, fall panicum, and 5 kinds of broadleaf weeds of black nightshade, indian jointvetch, velvetleaf, cocklebur, bindweed, which had been stored in a low temperature (6° C.), were sown. The day after sowing, test compound solutions were made by diluting with a preparation solution (including 50% acetone, 0.1% Tween-20) so that the final treatment amount of the test compounds was 50 or 75 g a.i./ha. The prepared test compound solution was used for treating soil surface by hand-spraying 14 mL per pot in a fume hood. After the treatment, it was managed under the same greenhouse conditions (average temperature 30±5° C., light/dark=14/10 hours), and after 14 days (after 21 days if necessary), the external symptoms and efficacy were investigated according to the scale of 0 (no control) to 100 (complete control). The results of Table 8 were obtained by evaluating weed control value to the untreated control by conducting visual assessment.

[11] = system: barnyard grass; assay: as above; design: key to Soil treatment herbicidal activity, barnyard grass: 0 (no control); 100 (complete control); details: 50 g ai/ha, scale 0 (no control) to 100 (complete control)
Procedure: as §2

[12] = system: quack grass; assay: as above; design: key to Soil treatment herbicidal activity, quack grass: 0 (no control); 100 (complete control); details: 50 g ai/ha, scale 0 (no control) to 100 (complete control)
Procedure: as §2

[13] = system: crabgrass; assay: as above; design: key to Soil treatment herbicidal activity, Crabgrass: 0 (no control); 100 (complete control); details: 50 g ai/ha, scale 0 (no control) to 100 (complete control); for pest or weed control at 50 g/ha: Digitaria sanguinalis
Procedure: as §2

[14] = system: fall panicum; assay: as above; design: key to Soil treatment herbicidal activity, Fall panicum: 0 (no control); 100 (complete control); details: 50 g ai/ha, scale 0 (no control) to 100 (complete control)
Procedure: as §2

[15] = system: black nightshade; assay: as above; design: key to Soil treatment herbicidal activity, black nightshade: 0 (no control); 100 (complete control); details: 50 g ai/ha, scale 0 (no control) to 100 (complete control)
Procedure: as §2

[16] = system: indian jointvetch; assay: as above; design: key to Soil treatment herbicidal activity, Indian jointvetch: 0 (no control); 100 (complete control); details: 50 g ai/ha, scale 0 (no control) to 100 (complete control)
Procedure: as §2

[17] = system: velvetleaf; assay: as above; design: key to Soil treatment herbicidal activity, velvet leaf: 0 (no control); 100 (complete control); details: 50 g ai/ha, scale 0 (no control) to 100 (complete control)
Procedure: as §2

[18] = system: bindweed; assay: as above; design: key to Soil treatment herbicidal activity, Bindweed: 0 (no control); 100 (complete control); details: 50 g ai/ha, scale 0 (no control) to 100 (complete control)
Procedure: as §2

[19] = system: quack grass; assay: Herbicidal activity test against upland field weeds (foliar treatment test); design: key to Foliar treatment herbicidal activity, quack grass: 0 (no control); 100 (complete control); details: 50 g ai/ha, scale 0-100
Summary of the method: as §1

SMILES	Foliar treatment herbicidal activity, Sorghum [1]	Foliar treatment herbicidal activity, barnyard grass [2]	Foliar treatment herbicidal activity, Crabgrass [3]	Foliar treatment herbicidal activity, Fall panicum [4]	pest or weed control at 50 g/ha [5] [%]	pest or weed control at 50 g/ha [6] [%]	pest or weed control at 50 g/ha [7] [%]	pest or weed control at 50 g/ha [8] [%]	pest or weed control at 50 g/ha [9] [%]	Soil treatment herbicidal activity, Sorghum [10]	Soil treatment herbicidal activity, barnyard grass [11]	Soil treatment herbicidal activity, quack grass [12]	Soil treatment herbicidal activity, Fall panicum [14]	Soil treatment herbicidal activity, black nightshade [15]	Soil treatment herbicidal activity, Indian jointvetch [16]	Soil treatment herbicidal activity, velvet leaf [17]	pest or weed control at 50 g/ha [18] [%]	plant injury at 50 g/ha [1] [%]	Soil treatment herbicidal activity, Crabgrass [13]	Foliar treatment herbicidal activity, quack grass [19]	also measured
CN(C(=O)c1ccc(C(F)(F)F)nc1OCc1nnnn1C(F)F)c1nnnn1C [Compound No. 1-8, 2-((1-(difluoromethyl)-1H-tetrazol-5-yl)methoxy)-N-methyl-N-(1-methyl-1H-tetrazol-5-yl)-6-(trifluoromethyl)nicotinamide]	0	0	0	0	98	70	20	20	40	0	0	0	0	0	100	100	50				pest or weed control at 50 g/ha [13]: 30%
CN(Cc1nnnn1C)c1nc(C(F)(F)F)ccc1C(=O)Nc1nnnn1C [Compound No. 1-27, 2-(methyl((1-methyl-1H-tetrazol-5-yl)methyl)amino)-N-(1-methyl-1H-tetrazol-5-yl)-6-(trifluoromethyl)nicotinamide]		100	100							100	100		100	100	100	100	80	80	100		pest or weed control at 50 g/ha [19]: 30%; pest or weed control at 50 g/ha [4]: 80%; Foliar treatment herbicidal activity, Indian jointvetch [6]: 100; Foliar treatment herbicidal activity, velvet leaf [7]: 100; Foliar treatment herbicidal activity, Cocklebur [8]: 100; Foliar treatment herbicidal activity, Bindweed [9]: 100; pest or weed control at 50 g/ha [12]: 20%
Cn1cnc(COc2nc(C(F)(F)F)ccc2C(=O)Nc2nnnn2C)n1 [Compound No. 2-43, 2-((1-methyl-1H-1,2,4-triazol-3-yl)methoxy)-N-(1-methyl-1H-tetrazol-5-yl)-6-(trifluoromethyl)nicotinamide]					95	20	40	20	30	0	0	0	0					20	0	0	pest or weed control at 50 g/ha [2]: 60%; pest or weed control at 50 g/ha [3]: 30%; pest or weed control at 50 g/ha [4]: 50%; pest or weed control at 50 g/ha [16]: 20%; pest or weed control at 50 g/ha ([17]; Abutilon theophrasti, read-out: Soil treatment herbicidal activity, velvet leaf): 30%; Soil treatment herbicidal activity, Bindweed [18]: 0
Cn1cnc(COCc2nc(C(F)(F)C(F)(F)F)ccc2C(=O)Nc2nnnn2C)n1 [Compound No. 2-83, 2-(((1-methyl-1H-1,2,4-triazol-3-yl)methoxy)methyl)-N-(1-methyl-1H-tetrazol-5-yl)-6-(perfluoroethyl)nicotinamide]					98	70	70	60	40	0	0	0		100		100	40	20		0	pest or weed control at 50 g/ha [2]: 90%; pest or weed control at 50 g/ha [3]: 70%; pest or weed control at 50 g/ha [4]: 70%; pest or weed control at 50 g/ha [13]: 70%; pest or weed control at 50 g/ha ([14]; Panicum dichotomiflorum): 60%; pest or weed control at 50 g/ha [16]: 80%
CCOC(=O)OC(C)N(C(=S)c1ccc(C(F)(F)F)nc1CSCc1nnn(C)n1)c1nnnn1C (centres unmarked) [Compound No. 4-9, ethyl (1-(N-(1-methyl-1H-tetrazol-5-yl)-2-((((2-methyl-2H-tetrazol-5-yl)methyl)thio)methyl)-6-(trifluoromethyl)pyridin-3-carbothioamido)ethyl)carbonate]	70	100	98	90						0	0	0	0	100	100	100			0	0	Foliar treatment herbicidal activity, black nightshade [5]: 98; Foliar treatment herbicidal activity, Indian jointvetch [6]: 98; Foliar treatment herbicidal activity, velvet leaf [7]: 98; Foliar treatment herbicidal activity, Cocklebur [8]: 100; Foliar treatment herbicidal activity, Bindweed [9]: 100
CC(OC(=O)OC1CCCCC1)N(C(=O)c1ccc(C(F)(F)F)nc1COCc1nnn(C)n1)c1nnnn1C (centres unmarked) [Compound No. 4-11, cyclohexyl(1-(N-(1-methyl-1H-tetrazol-5-yl)-2-(((2-methyl-2H-tetrazol-5-yl)methoxy)methyl)-6-(trifluoromethyl)nicotinamido)ethyl)carbonate]	60	98	98	95						0	100	0	60	100	40	100			100	0	Foliar treatment herbicidal activity, black nightshade [5]: 100; Foliar treatment herbicidal activity, Indian jointvetch [6]: 98; Foliar treatment herbicidal activity, velvet leaf [7]: 100; Foliar treatment herbicidal activity, Cocklebur [8]: 98; Foliar treatment herbicidal activity, Bindweed [9]: 100; Soil treatment herbicidal activity, Bindweed [18]: 0

From patent publication US12495798B2, “Nicotinamide compound and herbicidal composition comprising compound” (KOREA RESEARCH INSTITUTE OF CHEMICAL TECHNOLOGY, priority 2019, dated 2025)
